System: NTPPPH
Experiment: Cell-associated NTPPPH activity (control study)
Assay type: cell-based
Conditions: not shown

| Molecule | cell-associated NTPPPH activity |
| --- | --- |
| CC[C@H]1/C=C/C=C/C[C@@H](C)[C@H](O)[C@@](C)(O)C(=O)[C@@H](C)[C@H](O)[C@@H](C)C(=O)[C@@H](C)[C@H](O)[C@@H](C)/C=C/C(=O)O[C@@H]2[C@H](C)[C@H](CC1)O[C@]1(CC[C@H](C)[C@H](C[C@@H](C)O)O1)[C@H]2C [oligomycin] | neither oligomycin nor antimycin treatment suppressed cell-associated NTPPPH activity |
| antimycin A | neither oligomycin nor antimycin treatment suppressed cell-associated NTPPPH activity |

— patent publication US7005274B1, “Methods and compositions for diagnosing and treating arthritic disorders and regulating bone mass” (MIGENIX Corp., priority 1999, dated 2006)
